Assay results reported in ChEMBL document CHEMBL3397012, “Synthesis and biological evaluation of 4-nitroindole derivatives as 5-HT2A receptor antagonists” (Bioorg Med Chem, 2015).

Assays:
[1] = biological target: T1, 5-hydroxytryptamine receptor 6 (Homo sapiens, UniProt P50406); assay: Inhibition of human recombinant 5-HT6 receptor expressed in HEK293 cells assessed as inhibition of 5-HT-induced increase in […] pretreated for 10 mins by cAMP accumulation assay; format: functional, cell-based
[2] = biological target: T2, 5-hydroxytryptamine receptor 2C (Homo sapiens) (UniProt P28335); assay: Displacement of [3H]Mesulergine from human recombinant 5-HT2C receptor expressed in CHO-K1 cells at 10 uM after 15 mins; format: cell-based
T2 sequence (whole entry): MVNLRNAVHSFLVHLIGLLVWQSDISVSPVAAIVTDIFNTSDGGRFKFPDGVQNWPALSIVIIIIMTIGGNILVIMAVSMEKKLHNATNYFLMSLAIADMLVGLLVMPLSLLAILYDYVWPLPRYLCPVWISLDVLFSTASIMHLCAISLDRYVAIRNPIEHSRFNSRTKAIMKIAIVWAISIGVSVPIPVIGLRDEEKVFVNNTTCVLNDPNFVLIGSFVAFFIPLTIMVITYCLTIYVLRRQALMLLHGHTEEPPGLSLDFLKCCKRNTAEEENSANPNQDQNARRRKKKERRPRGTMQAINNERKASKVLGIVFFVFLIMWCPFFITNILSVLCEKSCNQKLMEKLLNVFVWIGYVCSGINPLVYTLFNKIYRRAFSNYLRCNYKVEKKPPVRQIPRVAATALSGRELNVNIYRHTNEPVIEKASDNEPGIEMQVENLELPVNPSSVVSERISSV

[3] = biological target: T1, 5-hydroxytryptamine receptor 6; assay: Inhibition of human recombinant 5-HT6 receptor expressed in HEK293 cells assessed as inhibition of 5-HT-induced increase in […] pretreated at 10 uM for 10 mins by cAMP accumulation assay; format: functional, cell-based
[4] = biological target: T3, 5-hydroxytryptamine receptor 2A (Homo sapiens, UniProt P28223); assay: Displacement of [3H]Ketanserin from human recombinant 5-HT2A receptor expressed in CHO-K1 cells after 15 mins; format: cell-based
T3 sequence (P28223 whole entry): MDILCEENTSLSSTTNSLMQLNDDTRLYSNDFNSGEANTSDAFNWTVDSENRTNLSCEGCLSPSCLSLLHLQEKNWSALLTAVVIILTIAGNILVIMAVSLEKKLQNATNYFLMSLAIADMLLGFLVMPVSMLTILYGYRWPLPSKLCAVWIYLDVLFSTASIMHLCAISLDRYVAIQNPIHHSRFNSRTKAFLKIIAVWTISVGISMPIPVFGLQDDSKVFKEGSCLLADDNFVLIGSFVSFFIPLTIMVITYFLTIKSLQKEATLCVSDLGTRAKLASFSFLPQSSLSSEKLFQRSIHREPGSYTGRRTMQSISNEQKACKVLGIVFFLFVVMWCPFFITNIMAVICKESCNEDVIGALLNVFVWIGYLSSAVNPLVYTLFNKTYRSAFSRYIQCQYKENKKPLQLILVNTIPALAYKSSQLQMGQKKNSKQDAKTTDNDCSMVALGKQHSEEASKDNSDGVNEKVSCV

[5] = biological target: T3, 5-hydroxytryptamine receptor 2A; assay: Displacement of [3H]Ketanserin from human recombinant 5-HT2A receptor expressed in CHO-K1 cells at 10 uM after 15 mins; format: cell-based
[6] = biological target: T4, 5-hydroxytryptamine receptor 2C (Homo sapiens, UniProt P28335); assay: Displacement of [3H]Mesulergine from human recombinant 5-HT2C receptor expressed in CHO-K1 cells after 15 mins; format: cell-based
T4 sequence (P28335 whole entry): T2 sequence (whole entry)

T1 sequence (P50406 whole entry): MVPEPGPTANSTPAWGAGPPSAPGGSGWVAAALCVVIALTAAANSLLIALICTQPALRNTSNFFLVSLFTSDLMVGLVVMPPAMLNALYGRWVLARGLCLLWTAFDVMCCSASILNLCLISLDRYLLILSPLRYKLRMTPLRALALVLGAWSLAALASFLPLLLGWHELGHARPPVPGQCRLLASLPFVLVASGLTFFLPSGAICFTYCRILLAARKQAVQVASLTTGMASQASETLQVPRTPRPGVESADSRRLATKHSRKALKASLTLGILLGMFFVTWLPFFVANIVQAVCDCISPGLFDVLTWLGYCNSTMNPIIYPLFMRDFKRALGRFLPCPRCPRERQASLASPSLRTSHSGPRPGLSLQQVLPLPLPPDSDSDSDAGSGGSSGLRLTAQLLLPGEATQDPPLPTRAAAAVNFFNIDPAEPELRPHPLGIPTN

Structure (SMILES) | IC50 [1] | inhibition [2] | inhibition [3] | IC50 [4] | inhibition [5] | IC50 [6]
CN1CCN(c2nc3ccc(NS(=O)(=O)c4cccc5ccccc45)cc3s2)CC1 | 3900 nM |  |  |  |  | 
COc1ccc(S(=O)(=O)n2cc(/C=N/N=C/N(C)C)c3c([N+](=O)[O-])cccc32)cc1 | 740 nM | 67.8% | 78.6% | 205 nM | 90.7% | 1040 nM
CCCCc1ccc(S(=O)(=O)n2cc(/C=N/N=C/N(C)C)c3c([N+](=O)[O-])cccc32)cc1 |  |  | 11.3% |  |  | 
Cc1ccc(S(=O)(=O)n2cc(/C=N/N=C/N(C)C)c3c([N+](=O)[O-])cccc32)cc1 | 2120 nM | 82.3% | 75.2% | 253 nM | 88.3% | 480 nM
CN(C)/C=N/N=C/c1cn(S(=O)(=O)c2cccc3ccccc23)c2cccc([N+](=O)[O-])c12 | 2960 nM | 64.2% | 73.9% | 555 nM | 94.6% | 

The remaining compounds from weak to strong by IC50 [1], led by results:

IC50 [1] | inhibition [2] | inhibition [3] | IC50 [4] | inhibition [5] | IC50 [6] | Structure (SMILES)
6340 nM | 66.2% | 62.4% | 247 nM | 85.2% |  | CN(C)/C=N/N=C/c1cn(S(=O)(=O)c2ccc(I)cc2)c2cccc([N+](=O)[O-])c12
4970 nM | 55.5% | 63.9% | 702 nM | 94.2% |  | CN(C)/C=N/N=C/c1cn(S(=O)(=O)c2ccc(F)cc2)c2cccc([N+](=O)[O-])c12
2530 nM | 80.1% | 68% | 433 nM | 88% | 463 nM | CN(C)/C=N/N=C/c1cn(S(=O)(=O)c2ccc3ccccc3c2)c2cccc([N+](=O)[O-])c12
2440 nM | 44.9% | 87.7% | 1590 nM | 75.9% |  | COc1ccc(Cl)cc1S(=O)(=O)n1cc(/C=N/N=C/N(C)C)c2c([N+](=O)[O-])cccc21
1830 nM | 48.4% | 78.1% | 329 nM | 83.9% |  | CN(C)/C=N/N=C/c1cn(S(=O)(=O)c2ccccc2)c2cccc([N+](=O)[O-])c12
1400 nM | 48.1% | 78.2% | 479 nM | 84.4% |  | COc1ccc(OC)c(S(=O)(=O)n2cc(/C=N/N=C/N(C)C)c3c([N+](=O)[O-])cccc32)c1
